The record followed here is paper PMC9445081, “Structural basis for recognition of N-formyl peptides as pathogen-associated molecular patterns” (Nature Communications, 2022).

Where a chain is given by its changes, count along the chain named.

Holding throughout (format): cell-based
One assay addresses T1, FPR1 R201A (Homo sapiens, UniProt P21462, R201A).
T1 construct: expressed in transfected cells; host or cells: HeLa cells, transient, pcDNA3.1(+)
T1 sequence (P21462 1-350 R201A): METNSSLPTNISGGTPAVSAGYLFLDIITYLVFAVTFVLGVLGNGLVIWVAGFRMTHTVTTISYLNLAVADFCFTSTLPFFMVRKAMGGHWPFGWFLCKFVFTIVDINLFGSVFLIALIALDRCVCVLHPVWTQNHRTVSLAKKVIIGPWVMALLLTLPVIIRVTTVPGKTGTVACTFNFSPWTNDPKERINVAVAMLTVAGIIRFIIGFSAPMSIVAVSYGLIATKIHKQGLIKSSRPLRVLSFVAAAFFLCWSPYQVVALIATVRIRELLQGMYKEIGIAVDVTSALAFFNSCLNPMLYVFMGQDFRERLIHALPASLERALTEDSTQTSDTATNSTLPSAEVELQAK
The experiment in a line: cAMP inhibition assay, FPR1 R201A. An excerpt:
(§1) FPR1 cDNA in the pcDNA3.1(+) vector (Invitrogen) was used as a template for gene manipulation. The mutations of FPR1 were introduced in the receptor through overlap extension PCR with elaborately designed primers (GENEWIZ, Suzhou, China). The sequences of the primers were listed in Supplementary Table 2. Two fragments of FPR1 (separated at mutated positions) were assembled into pre-cut pcDNA3.1(+) vectors with the ClonExpress Ultra One Step Cloning Kit (Vazyme Biotech, C115). Plasmids with FPR1 mutations were confirmed by DNA sequencing (GENEWIZ).
(§2) For functional studies, FPR1 and its mutants were expressed in HeLa cells as above. The cells were resuspended in HBSS buffer plus 5 mM HEPES, 0.1% BSA (w/v) and 0.5 mM 3-isobutyl-1-methylxanthine and seeded into 384-well plates. […] AG-14 was synthesized by Sungening Biotechnology (Shenzhen, China). […] Intracellular cAMP levels were measured with the LANCE Ultra cAMP kit (PerkinElmer, TRF0263) following the manufacturer’s instructions. […] Intracellular cAMP levels were calculated according to the TR-FRET signals of the samples and cAMP standards.
(§3) The data were analyzed with Prism 6.0 (GraphPad, San Diego, CA). […] For cell surface expression, data points were presented as the percentages (mean ± SEM) of the flow cytometry fluorescence signals of WT FPR1. […]

Another assay addresses T2, FPR1 Y257A (Homo sapiens, UniProt P21462, Y257A).
T2 construct: expressed in transfected cells; host or cells: HeLa cells, transient, pcDNA3.1(+)
T2 sequence (P21462 1-350 Y257A): T1 sequence (P21462 1-350 R201A) with A201R, Y257A
The experiment in a line: cAMP inhibition assay, FPR1 Y257A. To be noted: inhibiting forskolin-elevated cAMP, HeLa cells, read-out: pEC50, mean ± SEM (converted).
Description: as §1, §2, §3

The next assay addresses T3, FPR1 W254A (Homo sapiens, UniProt P21462, W254A).
T3 construct: expressed in transfected cells; host or cells: HeLa cells, transient, pcDNA3.1(+)
T3 sequence (P21462 1-350 W254A): T1 sequence (P21462 1-350 R201A) with A201R, W254A
The experiment in a line: cAMP inhibition assay, FPR1 W254A. The note with it: inhibiting forskolin-elevated cAMP, HeLa cells, read-out: pEC50, mean ± SEM (converted).
Description: as §1, §2, §3

The target of the next assay is T4, FPR1 WT (Homo sapiens, UniProt P21462).
T4 construct: expressed in transfected cells; host or cells: HeLa cells, transient, pcDNA3.1(+)
T4 sequence (P21462 1-350): T1 sequence (P21462 1-350 R201A) with A201R
The experiment in a line: cAMP inhibition assay, WT FPR1.
Description: as §1, §2, §3

The target in another assay is T5, FPR1 F291A (Homo sapiens, UniProt P21462, F291A).
T5 construct: expressed in transfected cells; host or cells: HeLa cells, transient, pcDNA3.1(+)
T5 sequence (P21462 1-350 F291A): T1 sequence (P21462 1-350 R201A) with A201R, F291A
The experiment in a line: cAMP inhibition assay, FPR1 F291A.
Description: as §1
as §2, with “China). Different concentrations of the ligands were prepared plus a fixed dose of forskolin with the buffer above.” for “China).”
(§4) The data were analyzed with Prism 6.0 (GraphPad, San Diego, CA). For dose-response analysis, the curves were plotted with the log[agonist] vs. response equation (three parameters) in the software. Data points were presented as the percentages (mean ± SEM) of the maximal cAMP level for each construct, from at least three independent experiments, as indicated in figure legends. The pEC50 values were the negative logarithm of the EC50 values, which were obtained from the dose-response curves. For cell surface expression, data points were presented as the percentages (mean ± SEM) of the flow cytometry fluorescence signals of WT FPR1. For statistical comparison, a p-value of 0.05 or lower is considered statistically significant.

For the next assay, the target named is T6, FPR1 R205A (Homo sapiens, UniProt P21462, R205A).
T6 construct: expressed in transfected cells; host or cells: HeLa cells, transient, pcDNA3.1(+)
T6 sequence (P21462 1-350 R205A): T1 sequence (P21462 1-350 R201A) with A201R, R205A
The experiment in a line: cAMP inhibition assay, FPR1 R205A.
Description: as §1
as §2, with “China). Different concentrations of the ligands were prepared plus a fixed dose of forskolin with the buffer above.” for “China).”
as §4

The target in a further assay is T7, FPR1 R84A (Homo sapiens, UniProt P21462, R84A).
T7 construct: expressed in transfected cells; host or cells: HeLa cells, transient, pcDNA3.1(+)
T7 sequence (P21462 1-350 R84A): T1 sequence (P21462 1-350 R201A) with R84A, A201R
The experiment in a line: cAMP inhibition assay, FPR1 R84A. The note with it: inhibiting forskolin-elevated cAMP, HeLa cells, read-out: pEC50, mean ± SEM (converted).
Description: as §1
as §2, with “China). Different concentrations of the ligands were prepared plus a fixed dose of forskolin with the buffer above.” for “China).”
as §4

On to `COc1cc(/C=N/NC(=O)c2ccc3c(c2)OCO3)ccc1OCc1ccccc1` [AG-14], for which the EC50 is 1580 nM on FPR1 R201A; 2510 nM on FPR1 Y257A; 5010 nM at FPR1 W254A; 398 nM on FPR1 WT; 2000 nM at FPR1 F291A; 1000 nM on FPR1 R205A. Moreover, the EC50 at FPR1 R84A was 1260 nM.
